Results on 17 compounds are retold here after article PMC12541710, “Design, synthesis, and anticancer evaluation of novel pyrazole–thiophene hybrid derivatives as multitarget inhibitors of wild EGFR, mutant (T790M) EGFR, and VEGFR-2” (RSC Advances, 2025).

Where two headings read alike, the source gives them in different places.

Broadly, the IC50 is the midpoint of a concentration-inhibition curve.

Series [1] relates to HepG2. In words: MTT cytotoxicity assay, HepG2. The settings on record: Homo sapiens, HepG2, 24 h, read-out: In vitro Cytotoxicity (IC50, μM) HepG2. The text has this: (§1) Two human cancer cell lines, HepG2 (human hepatocellular carcinoma) and MCF-7 (human breast adenocarcinoma), were used to test the produced compounds' cytotoxic activities. […] HepG2 cells, a hepatocellular carcinoma model, are widely used for studying VEGF/VEGFR-2-mediated angiogenesis and tumor progression.[76,77] Thus, these models provided a relevant system for assessing the potential EGFR/VEGFR inhibitory effects of our synthesized compounds. Accordingly, provide complementary systems for assessing the multitarget inhibitory potential of the synthesized pyrazole–thiophene hybrids against EGFR- and VEGFR-2-mediated oncogenic pathways. […] The cytotoxic activity of the synthesized pyrazole–thiophene derivatives was initially evaluated against two standard human cancer cell lines: MCF-7 and HepG2, which are widely used in cytotoxicity screening using the 3-(4,5-dimethylthiazol-2-yl)-2,5-diphenyltetrazolium bromide (MTT) assay (SI data, S1).[81–84] […]
(§2) S1. Analysis of Cytotoxic Inhibitory Concentration 50 (IC 50) with respect to HepG2 and MCF-7 The cytotoxic activity of the synthesized compounds was evaluated against MCF-7 and HepG2 cell lines using the 3-(4,5-dimethylthiazol-2-yl)-2,5-diphenyltetrazolium bromide (MTT) assay 2-5.
(§3) 100 µg/mL streptomycin, then seeded in 96 -well plates (1 × 10⁴ cells/well) and incubated at 37 °C with 5% CO₂ for 48 h. Test compounds, prepared by serial dilutio n, were added for 24 h, after which 20 µL of MTT solution (5 mg/mL) was introduced and incubated for 4 h. Formazan crystals were dissolved […]
(§4) Cell viability was ca lculated relative to untreated controls, and IC₅₀ values were obtained from dose – response curves by nonlinear regression. […]

Series [2] has as its system MCF-7. In words: MTT cytotoxicity assay, MCF-7. Particulars: Homo sapiens, MCF7, 24 h, read-out: In vitro Cytotoxicity (IC50, μM) MCF-7.
Text: as §1, §2, §3, §4
On the technique in general: Tetrazolium dyes change colour on reduction, which living cells bring about.

The next series has as its target T1, wild-type EGFR (Homo sapiens, UniProt P00533).
T1 construct: purchased #40321
In words: EGFR enzyme inhibition assay (wild type), Kinase-Glo kit. The format is biochemical. The method, then: (§5) Supporting Information (SI)
(§6) Formazan crystals were dissolved
(§7) response curves by nonlinear regression.
(§8) performed in 96 -well plates containing purified recombinant EGFR. Each we ll received 25 µL of
(§9) control). […] The reaction was initiated
(§10) After incubation, 50 µL of
(§11) min. Luminescence was then recorded using a microplate ELISA reader. Erlotinib served as t he
(§12) incubated for 5 min at room temperature.
(Kinase-Glo reads ATP consumption through a luciferase reaction.)

The target in another series is T2, EGFR mutant (T790M) (Homo sapiens, UniProt P00533, T790M).
T2 construct: purchased #40323
In words: EGFR enzyme inhibition assay (mutant T790M), Kinase-Glo kit. The format is biochemical. The protocol:
as §5, §6, §7, §8, §9, §10, §11, §12

For another series, the target named is T3, VEGFR-2 (Homo sapiens, UniProt P35968).
T3 construct: purchased Cell Signaling Technology #7788
In words: VEGFR-2 enzyme inhibition assay (HTScan Tyrosine Kinase Assay). The format is biochemical.

Series [3] has as its system MCF-7 cells. In words: Cell cycle analysis by PI flow cytometry. The format is cell-based, human. The settings on record: MCF-7, 10 µM, 48 h. The method, then:
S3. Assessment of the Impact of Compound 14 on Cell Cycle Progression and Apoptosis in MCF - […]
MCF-7 breast cancer cells were seeded under standard culture conditions and treated with 10 µM of compound 14 for 48 h. After treatment, cells were harvested by trypsinization, washed with PBS, and fixed in ice-cold 66% ethanol at 4 °C for at least 2 h. Prior to analysis, cells were washed again with PBS and stained using the Propidium Iodide Flow Cytometry Kit ( ab139418, Abcam, UK) according to the manufacturer’s instructions. Staining was carried out with PI and RNase at 37 °C in the dark for 30 min. Cell cycle distribution (G0/G1, S, and G2/M phases) was then determined by measuring PI fluorescence intensity in the FL2 channel 8. […]
On the technique in general: Flow cytometry measures light scatter and fluorescence of single cells or particles in a stream.

Series [4] deals with MCF-7 cells. In words: Annexin V-FITC/PI apoptosis and necrosis assay. The format is cell-based, human. Particulars: MCF-7, 10 µM, 48 h. The protocol:
Flow cytometric assay and the pro-apoptotic activity of compound 14 were assessed using the Annexin V-FITC Apoptosis Detection Kit (BioVision, USA; Cat. No. K101-25). The assay of compound 14 was performed in accordance with the reported procedure,[87,88] (SI data, S3). […]
The pro-apoptotic activity of compound 14 was assessed using the Annexin V -FITC Apoptosis Detection Kit (BioVision, USA; Cat. No. K101 -25) according to the manufacturer’s instructions.
MCF-7 cells (1–5 × 10⁵) were seeded and treated with 10 µM of 14 for 48 h. After treatment, both floating and adherent cells were collected by gentle trypsinization, washed with serum -containing medium, and resuspended in 500 µL of 1× Binding Buffer. Each sample was stained with 5 µL Annexin V-FITC and 5 µL propidium iodide (50 µg/mL) for 5 min at room temperature in the dark, then analyzed by flow cytometry. […]

Series [5] has as its system MCF-7. The settings on record: reference drug value; read-out: In vitro Cytotoxicity (IC50, μM) MCF-7; cited from earlier work.
The test system of series [6] is HepG2. The settings on record: reference drug value; read-out: In vitro Cytotoxicity (IC50, μM) HepG2; cited from earlier work.
Series [7] has as its system human pancreatic tumor (AsPC-1) and human glioblastoma (U251). Details: method as in PMID 26492233. Particulars: read-out: IC50 against AsPC-1 and U251; cited from earlier work.

T2 sequence (P00533 25-1210 T790M): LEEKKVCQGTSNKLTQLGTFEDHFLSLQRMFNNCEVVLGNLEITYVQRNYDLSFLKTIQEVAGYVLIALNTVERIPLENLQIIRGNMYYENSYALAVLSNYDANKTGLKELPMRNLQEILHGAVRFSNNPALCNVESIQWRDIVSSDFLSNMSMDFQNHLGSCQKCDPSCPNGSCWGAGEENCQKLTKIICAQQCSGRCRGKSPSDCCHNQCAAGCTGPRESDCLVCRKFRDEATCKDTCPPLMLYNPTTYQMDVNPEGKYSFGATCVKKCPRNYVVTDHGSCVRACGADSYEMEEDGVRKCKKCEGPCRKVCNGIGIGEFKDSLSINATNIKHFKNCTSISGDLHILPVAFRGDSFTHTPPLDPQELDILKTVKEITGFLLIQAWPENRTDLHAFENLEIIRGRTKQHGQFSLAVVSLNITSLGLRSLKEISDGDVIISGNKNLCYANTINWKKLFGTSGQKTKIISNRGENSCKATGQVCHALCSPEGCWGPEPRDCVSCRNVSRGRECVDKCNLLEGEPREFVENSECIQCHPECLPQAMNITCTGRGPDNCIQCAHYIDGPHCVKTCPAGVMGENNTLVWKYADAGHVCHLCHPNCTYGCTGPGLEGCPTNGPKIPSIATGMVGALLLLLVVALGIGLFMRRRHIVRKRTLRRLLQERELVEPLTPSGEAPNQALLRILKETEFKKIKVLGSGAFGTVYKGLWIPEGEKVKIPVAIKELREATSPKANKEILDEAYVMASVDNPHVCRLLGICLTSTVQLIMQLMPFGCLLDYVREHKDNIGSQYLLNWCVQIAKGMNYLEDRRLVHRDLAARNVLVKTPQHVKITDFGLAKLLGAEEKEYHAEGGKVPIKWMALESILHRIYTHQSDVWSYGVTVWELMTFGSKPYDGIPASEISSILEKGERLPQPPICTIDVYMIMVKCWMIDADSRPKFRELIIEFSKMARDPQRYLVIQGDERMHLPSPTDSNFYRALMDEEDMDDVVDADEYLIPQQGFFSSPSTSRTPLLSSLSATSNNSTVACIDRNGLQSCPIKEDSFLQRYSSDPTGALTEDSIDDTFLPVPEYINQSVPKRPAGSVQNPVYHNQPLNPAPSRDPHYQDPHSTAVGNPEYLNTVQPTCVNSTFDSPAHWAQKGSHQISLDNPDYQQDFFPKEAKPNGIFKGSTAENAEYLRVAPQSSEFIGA
T1 sequence (P00533 25-1210): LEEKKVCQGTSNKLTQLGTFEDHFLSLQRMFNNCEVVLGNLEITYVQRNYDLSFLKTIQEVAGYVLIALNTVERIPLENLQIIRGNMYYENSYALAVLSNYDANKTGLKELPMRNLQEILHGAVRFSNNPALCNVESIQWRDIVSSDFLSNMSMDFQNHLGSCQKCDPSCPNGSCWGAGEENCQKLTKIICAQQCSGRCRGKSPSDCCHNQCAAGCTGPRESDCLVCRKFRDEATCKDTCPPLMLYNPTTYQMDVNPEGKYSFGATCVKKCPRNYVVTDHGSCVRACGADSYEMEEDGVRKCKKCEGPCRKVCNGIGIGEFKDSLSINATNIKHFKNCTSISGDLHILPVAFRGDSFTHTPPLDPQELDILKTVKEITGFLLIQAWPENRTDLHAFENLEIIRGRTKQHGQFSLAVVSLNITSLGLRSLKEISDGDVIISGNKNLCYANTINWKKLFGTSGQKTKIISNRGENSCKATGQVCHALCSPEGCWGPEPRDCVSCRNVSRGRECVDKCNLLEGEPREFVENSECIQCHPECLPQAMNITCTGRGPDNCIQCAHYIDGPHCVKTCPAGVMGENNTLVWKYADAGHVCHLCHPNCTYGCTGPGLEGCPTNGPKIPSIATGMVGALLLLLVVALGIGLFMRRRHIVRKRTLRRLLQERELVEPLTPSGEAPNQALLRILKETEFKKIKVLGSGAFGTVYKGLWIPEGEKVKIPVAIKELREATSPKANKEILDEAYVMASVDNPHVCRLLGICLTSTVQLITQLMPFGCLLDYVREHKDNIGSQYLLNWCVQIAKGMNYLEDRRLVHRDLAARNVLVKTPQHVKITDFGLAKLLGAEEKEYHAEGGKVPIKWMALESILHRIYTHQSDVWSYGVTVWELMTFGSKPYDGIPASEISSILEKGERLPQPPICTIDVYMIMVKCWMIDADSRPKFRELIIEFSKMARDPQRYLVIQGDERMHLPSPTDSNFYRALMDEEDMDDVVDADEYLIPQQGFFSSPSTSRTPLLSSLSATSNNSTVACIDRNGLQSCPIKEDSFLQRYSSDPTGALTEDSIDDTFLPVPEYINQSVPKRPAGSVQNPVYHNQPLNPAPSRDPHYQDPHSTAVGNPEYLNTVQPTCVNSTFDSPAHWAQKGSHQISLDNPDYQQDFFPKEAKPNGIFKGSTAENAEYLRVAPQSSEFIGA
T3 sequence (P35968 789-1356 limits assumed): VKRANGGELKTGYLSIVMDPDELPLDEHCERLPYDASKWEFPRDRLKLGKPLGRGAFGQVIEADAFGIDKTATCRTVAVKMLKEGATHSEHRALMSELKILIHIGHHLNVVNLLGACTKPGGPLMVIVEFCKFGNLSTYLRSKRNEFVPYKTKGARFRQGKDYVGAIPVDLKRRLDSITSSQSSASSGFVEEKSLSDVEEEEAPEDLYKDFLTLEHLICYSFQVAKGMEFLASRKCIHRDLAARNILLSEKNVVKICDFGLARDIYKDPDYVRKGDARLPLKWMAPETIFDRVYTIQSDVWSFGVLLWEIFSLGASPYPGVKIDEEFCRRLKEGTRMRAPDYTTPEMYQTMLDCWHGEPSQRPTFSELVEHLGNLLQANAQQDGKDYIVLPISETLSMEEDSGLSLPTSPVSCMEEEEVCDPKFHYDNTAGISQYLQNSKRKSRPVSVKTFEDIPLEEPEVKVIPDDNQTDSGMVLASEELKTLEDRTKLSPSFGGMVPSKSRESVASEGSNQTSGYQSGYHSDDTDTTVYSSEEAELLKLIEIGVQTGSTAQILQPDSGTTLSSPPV

Turning to `O=C(C=Cc1cccs1)c1ccc([N+](=O)[O-])cc1` [Compound 1, 1-(4-nitrophenyl)-3-(thiophen-2-yl)prop-2-en-1-one], the results for the IC50 in the series with HepG2 [1] and with MCF-7 [2] were 90.5 µM and more than 100 µM, respectively.

Consider `O=[N+]([O-])c1ccc(C2=NNC(c3cccs3)C2)cc1` (stereo not drawn) [Compound 2, 3-(4-nitrophenyl)-5-(thiophen-2-yl)-4,5-dihydro-1H-pyrazole], for which the IC50 in the series with HepG2 [1] was 8.86 µM; in the series with MCF-7 [2] it was 6.57 µM; at wild-type EGFR, 59.5 µM; against EGFR mutant (T790M), 65.1 µM; at VEGFR-2 it was 889 µM.

On to `CC(=O)N1N=C(c2ccc([N+](=O)[O-])cc2)CC1c1cccs1` (stereo not drawn) [Compound 3, 1-(3-(4-nitrophenyl)-5-(thiophen-2-yl)-4,5-dihydro-1H-pyrazol-1-yl) ethan-1-one], for which the IC50 came to 53.2 µM in the series with HepG2 [1] and 43.6 µM in the series on MCF-7 [2].

`O=CN1N=C(c2ccc([N+](=O)[O-])cc2)CC1c1cccs1` (stereo not drawn) [Compound 4, 3-(4-nitrophenyl)-5-(thiophen-2-yl)-4,5-dihydro-1H-pyrazole-1-carbaldehyde]: the IC50 in the series with HepG2 [1] stood at 84 µM; in the series on MCF-7 [2], 92.1 µM.

Regarding `O=[N+]([O-])c1ccc(C2=Nc3ccccc3NC(c3cccs3)C2)cc1` (stereo not drawn) [Compound 5, 4-(4-nitrophenyl)-2-(thiophen-2-yl)-2,3-dihydro-1H-benzo[b][1,4] diazepine], the IC50 in the series on HepG2 [1] was 62.6 µM; in the series on MCF-7 [2], 75.5 µM.

As to `N#Cc1c(-c2cccs2)cc(-c2ccc([N+](=O)[O-])cc2)[nH]c1=O` [Compound 6, 6-(4-nitrophenyl)-2-oxo-4-(thiophen-2-yl)-1,2-dihydropyridine-3-carbonitrile], the IC50 in the series with HepG2 [1] was found to be 28.9 µM; in the series on MCF-7 [2], 23.3 µM.

With `O=C(CCl)N1N=C(c2ccc([N+](=O)[O-])cc2)CC1c1cccs1` (stereo not drawn) [Compound 7, 2-chloro-1-(3-(4-nitrophenyl)-5-(thiophen-2-yl)-4,5-dihydro-1H-pyrazol-1-yl)ethan-1-one], the IC50 with HepG2 [1] turned out to be 78.1 µM; in the series with MCF-7 [2] it was 75 µM.

In the case of `O=C(O)c1ccccc1C(=O)N1N=C(c2ccc([N+](=O)[O-])cc2)CC1c1cccs1` (stereo not drawn) [Compound 8, 2-(3-(4-nitrophenyl)-5-(thiophen-2-yl)-4,5-dihydro-1H-pyrazole-1-carbonyl)benzoic acid], the IC50 in the series on HepG2 [1] was 13.5 µM; with MCF-7 [2], 8.08 µM; at wild-type EGFR, 66.6 µM; against EGFR mutant (T790M), 121 µM; at VEGFR-2, 85.1 µM.

With `O=C(O)CCC(=O)N1N=C(c2ccc([N+](=O)[O-])cc2)CC1c1cccs1` (stereo not drawn) [Compound 9, 4-(3-(4-nitrophenyl)-5-(thiophen-2-yl)-4,5-dihydro-1H-pyrazol-1-yl)-4-oxobutanoic acid], the values for the IC50 with HepG2 [1] and with MCF-7 [2] were 22.6 µM and 17.8 µM, respectively.

In the case of `O=C(O)C=CC(=O)N1N=C(c2ccc([N+](=O)[O-])cc2)CC1c1cccs1` (stereo not drawn) [Compound 10, 4-(3-(4-nitrophenyl)-5-(thiophen-2-yl)-4,5-dihydro-1H-pyrazol-1-yl)-4-oxobut-2-enoic acid], the IC50 with HepG2 [1] came to 36.4 µM; in the series on MCF-7 [2], 32.6 µM.

`O=[N+]([O-])c1ccc(C2=NN(CN3N=C(c4ccc([N+](=O)[O-])cc4)CC3c3cccs3)C(c3cccs3)C2)cc1` (stereo not drawn) [Compound 11, bis(3-(4-nitrophenyl)-5-(thiophen-2-yl)-4,5-dihydro-1H-pyrazol-1-yl)methane]: the IC50 was determined as 74.2 µM with HepG2 [1] and 87.4 µM with MCF-7 [2].

In the case of `COC(=O)/C=C(\C(=O)OC)N1N=C(c2ccc([N+](=O)[O-])cc2)CC1c1cccs1` (stereo not drawn) [Compound 12, dimethyl 2-(3-(4-nitrophenyl)-5-(thiophen-2-yl)-4,5-dihydro-1H-pyrazol-1-yl)maleate], the IC50 turned out to be 59.3 µM in the series on HepG2 [1] and 51.7 µM in the series with MCF-7 [2].

For the compound `O=C(O)n1nc(-c2ccc([N+](=O)[O-])cc2)cc1-c1cccs1` [Compound 13, 3-(4-nitrophenyl)-5-(thiophen-2-yl)-1H-pyrazole-1-carboxylic acid], the IC50 stood at 41.4 µM in the series with HepG2 [1] and 37.1 µM in the series with MCF-7 [2].

On to `CC(=O)C1C(c2ccc([N+](=O)[O-])cc2)=NN(C=O)C1c1cccs1` (stereo not drawn) [Compound 14, 4-Acetyl-3-(4-nitrophenyl)-5-(thiophen-2-yl)-4,5-dihydro-1H-pyrazole-1-carbaldehyde], for which the IC50 in the series on HepG2 [1] is 19.6 µM; in the series on MCF-7 [2], 12.9 µM; on wild-type EGFR, 47.6 µM; against EGFR mutant (T790M), 48.3 µM; against VEGFR-2, 327 µM. Besides, in the series with MCF-7 cells [3], the “Cell cycle analysis Comment” value is “Cell cycle arrest at G1phase”. Further, the “Cell cycle analysis %G2/M” value in the series on MCF-7 cells [3] (control 16.74%) is 6.62%. The “Cell cycle analysis %S” value in the series with MCF-7 cells [3] (control 27.95%) is on record as 19.22%. Moreover, the “Cell cycle analysis %G0-G1” value with MCF-7 cells [3] (control 55.31%) was determined as 74.16%. Also, in the series on MCF-7 cells [4] (control 0.14%), the “Apoptosis Late” value is 7.1%. Also, the “Apoptosis Early” value in the series with MCF-7 cells [4] (control 0.69%) is 15.02%. This compound displayed a Necrosis in the series with MCF-7 cells [4] (control 2.36%) of 4.2%.

As to `COc1cccc2c1C(=O)c1c(O)c3c(c(O)c1C2=O)C[C@@](O)(C(=O)CO)C[C@@H]3O[C@H]1C[C@H](N)[C@H](O)[C@H](C)O1` [Doxorubicin, doxorubicin, reference compound], the IC50 with HepG2 [1] was 4.5 µM.

In the case of `C#Cc1cccc(Nc2ncnc3cc(OCCOC)c(OCCOC)cc23)c1` [Erlotinib, erlotinib], the IC50 is 8.2 µM in the series with MCF-7 [5] and 7.73 µM in the series on HepG2 [6].

As for `Cc1ccc(-c2nnc(SCC(=O)N3N=C(c4cccs4)CC3c3ccc(Cl)cc3)o2)cc1` (stereo not drawn) [compound II], the IC50 in [7] was 12 to 17 µM.
